Test results published in patent publication US20240108740A1, “THERAPEUTIC COMPOSITIONS INCLUDING SPN10 AND USES THEREOF” (Stealth BioTherapeutics Inc., priority 2022, published 2024).
Residues, ends and D or L forms follow the SMILES beside them.

Columns and labels:
Sprague-Dawley rats = assay: Example 56: diabetic retinopathy in STZ and HFD/STZ rats; type: in vivo, rat
Method: A rat model of diabetes will be established by combination of 6-week HFD and either 1) a low-dose STZ (30 mg/kg) injection, or 2) a single high dose of STZ (65 mg/kg) in Sprague-Dawley rats. See generally, Srinivasan, et al., Pharm. Res. 52(4):313-320 (2005). Controls will be maintained on normal rat chow (NRC). Treatment groups will be as follows: • Group A: 12 HFD/STZ peptide conjugates 10 mg/kg s.c • Group B: 12 HFD/STZ peptide conjugates 3 mg/kg s.c. • Group C: 12 HFD/STZ peptide conjugates 1 mg/kg s.c. • Group D: 10 HFD/STZ control vehicle. s.c. • Group E: 10 NRC control vehicle. s.c. • Group F: 12 HFD/STZ aromatic-cationic peptide (an equivalent molar dose of aromatic-cationic peptide based on concentration of the aromatic-cationic peptide administered in the 10 mg/kg s.c.q.d. peptide conjugate group) • Group G: 12 HFD/STZ aromatic-cationic peptide (an equivalent molar dose of aromatic-cationic peptide based on concentration of the aromatic-cationic peptide administered in the 3 mg/kg s.c.q.d. peptide conjugate group) • Group H: 12 HFD/STZ aromatic-cationic peptide (an equivalent molar dose of aromatic-cationic peptide based on concentration of the aromatic-cationic peptide administered in the 1 mg/kg s.c.q.d. peptide conjugate group) • Group I: 12 HFD/STZ SPN10 (an equivalent molar dose of SPN10 based on concentration of SPN10 administered in the 10 mg/kg s.c.q.d. peptide conjugate group) • Group J: 12 HFD/STZ SPN10 (an equivalent molar dose of SPN10 based on concentration of SPN10 administered in the 3 mg/kg s.c.q.d. peptide conjugate group) • Group K: 12 HFD/STZ SPN10 (an equivalent molar dose of SPN10 based on concentration of SPN10 administered in the 1 mg/kg s.c.q.d. peptide conjugate group). • Group L: SPN10(s) in combination with aromatic-cationic peptides (e.g., an equivalent molar dose of SPN10 based on the concentration of SPN10 administered in the 10 mg/kg s.c.q.d. peptide conjugate treatment group and an equivalent molar dose of aromatic-cationic peptide based on the concentration of aromatic-cationic peptide administered in the 10 mg/kg s.c.q.d. peptide conjugate treatment group) • Group M: SPN10(s) in combination with aromatic-cationic peptides (e.g., an equivalent molar dose of SPN10 based on the concentration of SPN10 administered in the 3 mg/kg s.c.q.d. peptide conjugate treatment group and an equivalent molar dose of aromatic-cationic peptide based on the concentration of aromatic-cationic peptide administered in the 3 mg/kg s.c.q.d. peptide conjugate treatment group) • Group N: SPN10(s) in combination with aromatic-cationic peptides (e.g., an equivalent molar dose of SPN10 based on the concentration of SPN10 administered in the 1 mg/kg s.c.q.d. peptide conjugate treatment group and an equivalent molar dose of aromatic-cationic peptide based on the concentration of aromatic-cationic peptide administered in the 1 mg/kg s.c.q.d. peptide conjugate treatment group)
Eyes will be harvested and subjects assessed for cataract formation, epithelial changes, integrity of the blood-retinal barrier, retinal microvascular structure, and retinal tight junction structure using methods known in the art.

Sprague Dawley rats = assay: Example 45: hypermetabolism after burn injury (indirect calorimetry); type: in vivo, rat; conditions: 30% total body surface area burn; IV every 12 hours for three days
Method: Sprague Dawley rats will be randomized into the following groups; sham-burn (SB), burn with saline treatment (B), burn with peptide conjugate-treatment (BP), burn with aromatic-cationic peptides (BP2), burn with SPN10(s) (BP3), burn with SPN10(s)+aromatic-cationic peptides (BP4). Catheters will be surgically placed into jugular vein and carotid artery. Band BP, BP2, BP3 and BP4 animals will receive 30% total body surface area full thickness burns by immersing the dorsal part into 100° C. water for 12 seconds with immediate fluid resuscitation. […] The EE of the animals will be monitored for 12 hours in a TSE Indirect Calorimetry System (TSE Co., Germany).

N=C(N)NCCC[C@H](NC(=O)[C@@H](N)Cc1c[nH]c2ccccc12)C(=O)N[C@@H](Cc1c[nH]c2ccccc12)C(=O)N[C@@H](CCCCN)C(N)=O [SPN10, H-L-Trp-L-Arg-L-Trp-L-Lys-NH2] (H-WRWK-NH2)
non-uniform distribution of tight junctions (claudin-5) along retinal vessels (Sprague-Dawley rats; HFD/STZ subjects): prevent, reverse, or attenuate this effect | retinal microvascular changes (Sprague-Dawley rats; STZ or HFD/STZ rats): reduce retinal microvascular changes | epithelial cellular changes (Sprague-Dawley rats; STZ rat model and HFD/STZ rat model): reduce epithelial cellular changes | inner blood-retinal barrier function (Sprague-Dawley rats; compared to control subjects): improved inner blood-retinal barrier function | cataract formation in the lenses of diabetic rats (Sprague-Dawley rats; rat, in vivo): prevention or reversal of cataract formation | increase in energy expenditure (EE) after burn (Sprague Dawley rats): attenuate or prevent this effect
